Test results published in patent publication US20030055065A1, “Tricyclic amide and urea compounds useful for inhibition of G-protein function and for treatment of proliferative diseases” (priority 1993, published 2003).
pIC50: −log10 of the molar value. Where two headings read alike, the source gives them in different places.

What was measured:
[1] = target: T1, farnesyl protein transferase (FPT), partially purified from rat brain (Rattus norvegicus, UniProt Q02293+Q04631); assay: Inhibition of farnesyl protein transferase (transfer of [3H]farnesyl to Ras-CVLS); assay type: biochemical; conditions: for pIC50: read-out: FPT IC50
T1 construct: were partially purified from rat brain by ammonium sulfate fractionation followed by Q-Sepharose
T1 sequence (Q02293 whole entry, one chain of several): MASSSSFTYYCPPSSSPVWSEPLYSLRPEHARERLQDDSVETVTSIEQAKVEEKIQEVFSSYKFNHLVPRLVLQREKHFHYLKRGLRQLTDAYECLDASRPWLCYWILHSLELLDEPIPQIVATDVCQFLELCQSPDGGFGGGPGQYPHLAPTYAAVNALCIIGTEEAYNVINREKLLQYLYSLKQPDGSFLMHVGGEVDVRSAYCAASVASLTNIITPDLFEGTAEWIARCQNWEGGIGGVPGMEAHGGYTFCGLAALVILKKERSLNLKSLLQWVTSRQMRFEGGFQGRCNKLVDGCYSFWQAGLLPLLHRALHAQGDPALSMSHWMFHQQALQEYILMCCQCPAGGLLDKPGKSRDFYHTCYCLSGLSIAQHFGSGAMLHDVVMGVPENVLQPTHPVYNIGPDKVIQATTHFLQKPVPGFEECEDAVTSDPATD
Procedure, shortened: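 Transfer of [3H]farnesyl onto E. coli-expressed, His6-tagged Ras-CVLS was measured after 30 min at room temperature. Radiolabelled Ras was TCA-precipitated on ice and filter-harvested, and inhibition was expressed as percent of DMSO control.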

[2] = test system: Ras-CVLS processing in COS monkey kidney cells; assay: COS cell assay: Ras-CVLS processing (Western blot); assay type: cell-based; conditions: Primates, COS, COS cells; read-out: Inhibition of Ras Processing IC50
Procedure, shortened: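 COS cells electroporated with Ras-CVLS (farnesyl transferase substrate) cDNA, with drug-containing fresh medium added at 24 h and cells examined at 48 h. TCA-precipitated cellular protein was resolved by SDS gel and immunoblotted with anti-p21 Ras monoclonal and HRP anti-rat IgG to monitor Ras processing.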

[3] = test system: T24-BAG4 human bladder carcinoma cells expressing an activated H-ras gene; assay: Cell Mat Assay: tumor cell colony inhibition (tIC50); assay type: cell-based; conditions: Homo sapiens, inhibition of tumor cell growth
Procedure, shortened: (§1)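 Serial compound dilutions added 24 h after planting T24-BAG4 cells onto a mat of normal cells, then 14 d colony growth; monolayers glutaraldehyde-fixed and tumor cells X-Gal stained. tIC50 and mIC50 from microscope counts of colonies, cells per colony and mat cell density.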

[4] = test system: Normal human HEPM fibroblasts; assay: Cell Mat Assay: density of mat cells (mIC50); assay type: cell-based; conditions: Homo sapiens, Fibroblast
Procedure, shortened: as §1

[5] = target: T2, geranylgeranyl protein transferase (GGPT) I (Rattus norvegicus, UniProt P53610+Q04631); assay: Inhibition of geranylgeranyl protein transferase I (Ras-CVLL as acceptor); assay type: biochemical; conditions: enzyme inhibition
T2 construct: were partially purified from rat brain by ammonium sulfate fractionation followed by Q-Sepharose
T2 sequence (P53610 whole entry, one chain of several): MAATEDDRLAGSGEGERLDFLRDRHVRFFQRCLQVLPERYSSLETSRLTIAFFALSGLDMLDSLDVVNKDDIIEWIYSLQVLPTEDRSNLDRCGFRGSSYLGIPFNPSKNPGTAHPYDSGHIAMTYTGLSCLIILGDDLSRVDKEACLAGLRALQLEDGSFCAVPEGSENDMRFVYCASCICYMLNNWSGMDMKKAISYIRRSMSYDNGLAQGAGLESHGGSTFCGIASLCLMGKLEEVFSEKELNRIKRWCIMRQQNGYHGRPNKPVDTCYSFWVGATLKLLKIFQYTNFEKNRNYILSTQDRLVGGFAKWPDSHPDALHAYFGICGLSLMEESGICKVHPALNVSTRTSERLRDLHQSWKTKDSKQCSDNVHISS
Description: 1. In vitro enzyme assays: Inhibition of farnesyl protein transferase and geranylgeranyl protein transferase.
Both farnesyl protein transferase (FPT) and geranylgeranyl protein transferase (GGPT) I were partially purified from rat brain by ammonium sulfate fractionation followed by Q-Sepharose (Pharmacia, Inc.) anion exchange chromatography essentially as described by Yokoyama et al (Yokoyama, K., et al., (1991), A protein geranylgeranyltransferase from bovine brain: Implications for protein prenylation specificity, Proc. Natl. Acad. Sci USA 88: 5302-5306, the disclosure of which is incorporated herein by reference thereto). Human farnesyl protein transferase was also expressed in E. coli, using cDNA clones encoding both the α and β subunits. The methods used were similar to those published (Omer, C. et al., (1993), Characterization of recombinant human farnesyl protein transferase: Cloning, expression, farnesyl diphosphate binding, and functional homology with yeast prenyl-protein transferases, Biochemistry 32:5167-5176). Human farnesyl protein transferase was partially-purified from the soluble protein fraction of E. coli as described above. […] Two forms of val^12-Ha-Ras protein were prepared as substrates for these enzymes, differing in their carboxy terminal sequence. One form terminated in cysteine-valine-leucine-serine (Ras-CVLS) the other in cystein-valine-leucine-leucine (Ras-CVLL). Ras-CVLS is a substrate for the farnesyl protein transferase while Ras-CVLL is a substrate for geranylgeranyl protein transferase I. The cDNAs encoding these proteins were constructed so that the proteins contain an amino-terminal extension of 6 histidine residues. Both proteins were expressed in Escherichia coli and purified using metal chelate affinity chromatography. The radiolabelled isoprenyl pyrophosphate substrates, [^3H]farnesyl pyrophosphate and [3H]geranylgeranyl pyrophosphate, were purchased from DuPont/New England Nuclear.
The geranylgeranyl protein transferase I assay was essentially identical to the farnesyl protein transferase assay described above, with two exceptions: [^3H]geranylgeranylpyrophosphate replaced farnesyl pyrophosphate as the isoprenoid donor and Ras-CVLL was the protein acceptor.

[6] = Ras-CVLS farnesylation, partially purified rat brain FPT

| pIC50 [1, 6] | pIC50 [3] | melting point | Compound | pIC50 [2] | pIC50 [4] | further results |
| --- | --- | --- | --- | --- | --- | --- |
| 5.55 |  | 67.2 to 69.8 °C | CCc1cc2c(cc1Cl)C=Cc1cccnc1C2C1CCN(C(=O)Cc2cccnc2)CC1 (stereo not shown) [Example 270] |  |  |  |
| 6.01 | 5.20 |  | O=C(Nc1cccnc1)N1CCC(C2c3ccc(Cl)cc3CCc3cccnc32)CC1 (stereo not shown) [Example 313] | 5.82 | < 4.30 | pIC50 [5]: < 4.34 |
| 6.08 | 5.40 |  | O=C(Nc1ccncc1)N1CCC(C2c3ccc(Cl)cc3CCc3cccnc32)CC1 (stereo not shown) [Example 314] | 5.52 | < 4.30 | pIC50 [5]: < 4.34 |
| 5.90 | 4.60 |  | CC(C)(C(=O)N1CCC(C2c3ccc(Cl)cc3CCc3cccnc32)CC1)c1ccccc1 (stereo not shown) [Example 316] | 4.74 | < 4.30 | pIC50 [5]: < 4.37 |
| 6.24 |  | 111.3 to 112.2 °C | O=C(Cc1ccncc1)N1CCC(=C2c3ccc(Cl)cc3CCc3cc([N+](=O)[O-])cnc32)CC1 [Example 358] |  |  |  |
| 7.52 | > 5.80 |  | O=C(Cc1cc[n+]([O-])cc1)N1CCC(C2c3ccc(Cl)cc3C=Cc3cc(Br)cnc32)CC1 (stereo not shown) [Example 400-C] | 6.15 | < 4.60 | pIC50 ([1]; enzyme inhibition): 7.52; pIC50 [5]: < 4.42 |
| 6.68 | 5.40 |  | O=C(Cc1ccc[n+]([O-])c1)N1CCC(C2c3ccc(Cl)cc3C=Cc3cc(Br)cnc32)CC1 (stereo not shown) [Example 400-D] | 5.70 | < 4.60 | pIC50 ([1]; enzyme inhibition): 6.68; pIC50 [5]: < 4.42 |
| 7.62 | 5.80 |  | O=C(Cc1ccncc1)N1CCC(C2c3ccc(Cl)cc3C=Cc3cc(Br)cnc32)CC1 (stereo not shown) [Example 400-G] | 6.24 | < 4.60 | pIC50 ([1]; enzyme inhibition): 7.62; pIC50 [5]: < 4.41 |
|  |  | 125.6 °C (dec.) | O=C(Nc1ccccc1)N1CCC(=C2c3ccc(Cl)cc3CCc3c2ncc(Br)c3Cl)CC1 [Example 414] |  |  | pIC50 ([1]; enzyme inhibition): 6.05 |
|  |  | 150 °C (dec.) | O=C(Cc1ccncc1)N1CCC(=C2c3ccc(Cl)cc3CCc3cc(Br)c(O)nc32)CC1 [Example 415] |  |  | pIC50 ([1]; enzyme inhibition): < 5.42 |
| 5.43 |  | 142 °C (dec.) | Cn1cc(Br)c(=O)c2c1C(=C1CCN(C(=O)Cc3ccncc3)CC1)c1ccc(Cl)cc1CC2 [Example 416] |  |  |  |
|  |  | 206.4 to 207 °C | O=C(Nc1ccncc1)N1CCC(=C2c3ccc(Cl)cc3CCc3cc(Cl)ccc32)CC1 [Example 423] |  |  | FPT inhibition at the concentration in parentheses ([1]; (4.3) μM): 35 (4.3); pIC50 ([1]; enzyme inhibition): < 5.37 |
|  |  | 238 to 240 °C | O=C(O)c1ccc2c(c1)CCc1cccnc1C2=C1CCN(C(=O)Cc2ccncc2)CC1 [Example 435] |  |  | pIC50 ([1]; enzyme inhibition): 5.15 |
| 4.77 |  | 118 to 120 °C | O=C(NCc1ccccc1)c1ccc2c(c1)CCc1cccnc1C2=C1CCN(C(=O)Cc2ccncc2)CC1 [Example 436] |  |  |  |
|  |  | 132.8 to 133.7 °C | O=C(Nc1ccc2c(c1)CCc1cccnc1C2=C1CCN(C(=O)Cc2ccncc2)CC1)OCc1ccccc1 [Example 437] |  |  | FPT inhibition at the concentration in parentheses ([1]; (11) μM): 36 (11) |
|  |  | 134 to 136.1 °C | O=C(Cc1ccnc(Br)c1)N1CCC(=C2c3ccc(Cl)cc3CCc3cc(Br)cnc32)CC1 [Example 506] |  |  |  |

Continued, compound first:

| Compound | pIC50 [1, 6] | pIC50 [3] | melting point | pIC50 [2] | pIC50 [4] | further results |
| --- | --- | --- | --- | --- | --- | --- |
| O=C(Cc1ccccn1)N1CCC(=C2c3ccc(Cl)cc3CCc3cccnc32)CC1 [Example 6] | 5.70 | 4.90 | 122 to 125 °C | 5.00 | 4.30 |  |
| O=C(c1ccncc1)N1CCC(=C2c3ccc(Cl)cc3CCc3cccnc32)CC1 [Example 15] | 5.33 |  | 176 to 178 °C |  |  |  |
| O=C(c1cc[n+]([O-])cc1)N1CCC(=C2c3ccc(Cl)cc3CCc3cccnc32)CC1 [Example 22] | 5.22 |  | 228 °C (dec.) |  |  |  |
| CN1C(=O)C(CCC(=O)N2CCC(=C3c4ccc(Cl)cc4CCc4cccnc43)CC2)NC1=S (stereo not shown) [Example 23] | 5.22 |  | 205 to 207 °C |  |  |  |
| O=C1CCC(C(=O)N2CCC(=C3c4ccc(Cl)cc4CCc4cccnc43)CC2)=NN1 [Example 35] | 5.00 |  | 190 to 193 °C |  |  |  |
| O=C(C(CO)c1ccccc1)N1CCC(=C2c3ccc(Cl)cc3CCc3cccnc32)CC1 (stereo not shown) [Example 41, 8-chloro-1-[ -(2-hydroxy-1-phenylethylcarbonyl)-4-piperidylidene]-6,11-dihydro-5H-benzo[5,6]-cyclohepta-[1,2-b]pyridine] | 5.21 |  | 92.7 to 93 °C |  |  |  |
| O=C(C(c1ccccc1)c1ccccc1)N1CCC(=C2c3ccc(Cl)cc3CCc3cccnc32)CC1 [Example 42] | 6.22 | 4.30 | 114.2 to 115.8 °C | 5.24 | < 4.30 |  |
| O=C(Cc1ccc(Br)cc1)N1CCC(=C2c3ccc(Cl)cc3CCc3cccnc32)CC1 [Example 43] | 6.22 | 4.60 | 93.3 to 94.6 °C | 5.01 | 4.30 |  |
| O=C(Cc1ccccc1)N1CCC(=C2c3ccc(Cl)cc3CCc3cccnc32)CC1 [Example 44] | 6.10 | 4.60 | 112 to 114.6 °C | 4.94 | 4.60 |  |
| CCC(C(=O)N1CCC(=C2c3ccc(Cl)cc3CCc3cccnc32)CC1)c1ccccc1 (stereo not shown) [Example 48] | 5.89 | 4.90 | 82.7 to 83.8 °C | 4.97 | 4.60 |  |
| O=C(C(=O)N1CCC(=C2c3ccc(Cl)cc3CCc3cccnc32)CC1)c1c[nH]c2ccccc12 [Example 219] | 5.18 |  | 192 to 193 °C |  |  |  |
| O=C(Cc1ccccc1[N+](=O)[O-])C(=O)N1CCC(=C2c3ccc(Cl)cc3CCc3cccnc32)CC1 [Example 220] | 5.60 |  | 282 to 285 °C |  |  |  |
| O=C(Cc1cc[n+]([O-])cc1)N1CCC(=C2c3ccc(Cl)cc3CCc3cccnc32)CC1 [Example 227] |  |  | 128 to 130 °C |  |  |  |
| O=C(Cc1ccc[n+]([O-])c1)N1CCC(=C2c3ccc(Cl)cc3CCc3ccc[n+]([O-])c32)CC1 [Example 231] |  |  | 105 to 107 °C |  |  | inhibition at 12 µM ([1]; at 12 μM): 44% |
| O=C(Cc1cccnc1)N1CCC(C2c3ccc(Cl)cc3CCc3ccc[n+]([O-])c32)CC1 (stereo not shown) [Example 235] | 5.45 | 4.90 | 61.8 to 62.3 °C | 5.04 | < 4.30 |  |
| O=C(Cc1cc[n+]([O-])cc1)N1CCC(C2c3ccc(Cl)cc3CCc3ccc[n+]([O-])c32)CC1 (stereo not shown) [Example 238] |  | < 4.30 | 85 to 85.6 °C |  | < 4.30 | inhibition at 4 µM ([1]; at 4 μM): 26% |
| O=C(Cc1ccncc1)N1CCC(=C2c3ccc(Cl)cc3CCc3c(On4nnc5ccccc54)ccnc32)CC1 [Example 249] | 6.19 |  | 98.6 to 101.6 °C |  |  |  |
| O=C(Cc1cccnc1)N1CCC(=C2c3ccc(Cl)cc3CCc3c(Cl)ccnc32)CC1 [Example 250] | 6.02 | 4.74 | 59.8 to 63.5 °C | 5.07 | < 4.30 |  |
| O=C(Cc1cccnc1)N1CCC(=C2c3ccc(Cl)cc3CCc3c(On4nnc5ccccc54)ccnc32)CC1 [Example 251] | 6.12 |  | 120 to 122 °C | 5.09 |  |  |
| CC(C)(C)OC(=O)NCCSc1ccnc2c1CCc1cc(Cl)ccc1C2=C1CCN(C(=O)Cc2cccnc2)CC1 [Example 260] | 5.00 |  | 59.8 to 63.5 °C |  |  |  |
| O=C(Cc1cccnc1)N1CCN(C2c3ccc(Cl)cc3CCc3cc(Br)cnc32)CC1 (stereo not shown) [Example 351] | 6.77 | 5.20 |  | 5.55 | 4.60 | IC50 [5]: 1000 µM |
